The target of assay [1] is GST-CBP(1081-1197) bromodomain (Homo sapiens (Human), UniProt Q92793). In words: CBP AlphaScreen Assay. To be noted: binding to biotin-H4(1-21) Ac-K5/8/12/16. As for the experimental part: (§1) Specific binding of the CBP or BRD4 bromodomain to the acetylated peptide derived from the H4 histone substrate (tetra acetylated H4(1-21) Ac-K5/8/12/16) was measured in absence or presence of inhibitors. The GST tagged bromodomains of CBP (1081-1197) and BRD4 (49-170) were obtained from BPS Bioscience and binding to the biotinylated H4(1-21) Ac-K5/8/12/16 (AnaSpec. 64989) was assessed via AlphaScreen technology (Perkin Elmer).
GST-CBP(1081-1197) bromodomain, sequence (Q92793 1081-1197): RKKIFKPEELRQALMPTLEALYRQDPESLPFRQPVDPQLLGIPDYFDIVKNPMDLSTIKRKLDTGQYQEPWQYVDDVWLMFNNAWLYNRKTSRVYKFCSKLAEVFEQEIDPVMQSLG
(§2) 5 nM GST-CBP(1081-1197) and 20 nM biotin-H4(1-21) Ac-K5/8/12/16 (AnaSpec. 64989) were incubated with varying concentrations of CBP inhibitors in 15 μL of buffer containing 50 mM HEPES 7.5, […], 1 mM TCEP, and 0.003% Tween-20. After 30 minutes incubation at room temperature, 15 μL of detection buffer (BPS Bio. 33006) containing 7 μg/mL of Glutathione AlphaLisa acceptor beads (Perkin Elmer AL109) and 14 μg/mL of Streptavidin donor beads (Perkin Elmer 676002) was then added to the previous mixture. The reaction was incubated for an additional 2 hours at room temperature, and the AlphaScreen signal was quantified using the Envision Multilabel plate reader. As negative control, GST-CBP(1081-1197) was incubated with the non-acetylated biotin-H4(1-21) peptide(AnaSpec. 62555) and in presence of 0.25% of final DMSO concentration.
(§3) the binding of 2.5 nM of BRD4(49-170) to 10 nM biotin-H4(1-21) Ac-K5/8/12/16 (AnaSpec. 64989) was assessed following the same procedure described for the CBP assay. The standard dose response curves were fitted by Genedata Screener software using the variable-slope model: Signal=Signalnegative control+(SignalDMSO control−Signalnegative control)/(1+(IC50/Dose)^Hill slope).
(§4) Only Signal and Dose in the equation were treated as know values.
(Bead proximity is the source of the signal in Alpha formats.)

Another assay addresses BRD4(49-170) bromodomain (Homo sapiens (Human), UniProt O60885). In words: BRD4 AlphaScreen Assay. To be noted: binding to biotin-H4(1-21) Ac-K5/8/12/16. As to the method:
as §1, §2, §3, §4

For orientation: IC50 means the concentration that gives 50% inhibition. High values mean lower potency, low ones higher potency. With `Cc1nn(C)cc1-c1cc2ccc(F)c(-c3nc(C4CCOCC4)n4c3CN(C)C(=O)C4C)c2cn1` (single isomer, unassigned) [Example 91a, 1-(3-(1,3-dimethyl-1H-pyrazol-4-yl)-7-fluoroisoquinolin-8-yl)-5,7-dimethyl-3-(tetrahydro-2H-pyran-4-yl)-7,8-dihydroimidazo[1,5-a] pyrazin-6(5H)-one], the IC50 in assay [1] came to 3610 nM; at BRD4(49-170) bromodomain it was 25 µM.

Turning to `Cc1nn(C)cc1-c1cc2ccc(F)c(-c3nc(C4CCOCC4)n4c3CN(C)C(=O)C4C)c2cn1` (single isomer, unassigned) [Example 91b, 1-(3-(1,3-dimethyl-1H-pyrazol-4-yl)-7-fluoroisoquinolin-8-yl)-5,7-dimethyl-3-(tetrahydro-2H-pyran-4-yl)-7,8-dihydroimidazo[1,5-a] pyrazin-6(5H)-one], the half-maximal inhibitory concentration (IC50) in assay [1] turned out to be 3 nM; at BRD4(49-170) bromodomain, 0.287 µM.

Take `CN1Cc2c(N3CCCc4cc(-c5cnn(C)c5)c(C(F)F)cc43)nc(C3CC3)n2CC1=O` [Example 1, 3-cyclopropyl-1-(7-(difluoromethyl)-6-(1-methyl-1H-pyrazol-4-yl)-3,4-dihydroquinolin-1(2H)-yl)-7-methyl-7,8-dihydroimidazo[1,5-a]pyrazin-6(5H)-one]: the IC50 in assay [1] was found to be 7 nM; at BRD4(49-170) bromodomain, 8.81 µM.

Regarding `CCN1Cc2c(N3CCCc4cc(-c5cnn(C)c5)c(C(F)F)cc43)nc(C3CC3)n2CC1=O` [Example 4, 3-Cyclopropyl-1-(7-(difluoromethyl)-6-(1-methyl-1H-pyrazol-4-yl)-3,4-dihydroquinolin-1(2H)-yl)-7-ethyl-7,8-dihydroimidazo[1,5-a]pyrazin-6(5H)-one], the half-inhibitory concentration (IC50) in assay [1] turned out to be 6 nM; at BRD4(49-170) bromodomain, 17.6 µM.

As to `C[C@@H]1CN(C)C(=O)c2c(-c3cccc4nc(-c5cnn(C)c5)c(C(F)F)cc34)nc(C3CCOCC3)n21` [Example 5a, (R)-1-(3-(Difluoromethyl)-2-(1-methyl-1H-pyrazol-4-yl)quinolin-5-yl)-5,7-dimethyl-3-(tetrahydro-2H-pyran-4-yl)-7,8-dihydroimidazo[1,5-a]pyrazin-(5H)-one], the 50% inhibitory concentration (IC50) was 4 nM in assay [1] and 0.353 µM at BRD4(49-170) bromodomain.

In the case of `C[C@H]1C(=O)N(C)Cc2c(-c3cccc4nc(-c5cnn(C)c5)c(C(F)F)cc34)nc(C3CCOCC3)n21` [Example 5b, (S)-1-(3-(difluoromethyl)-2-(1-methyl-1H-pyrazol-4-yl)quinolin-5-yl)-5,7-dimethyl-3-(tetrahydro-2H-pyran-4-yl)-7,8-dihydroimidazo[1,5-a]pyrazin-6(5H)-one], the IC50 turned out to be 2670 nM in assay [1] and 25 µM on BRD4(49-170) bromodomain.

For the compound `Cn1cc(-c2cc3cccc(-c4nc(C5CC5)n5c4CN(CCO)C(=O)C5)c3cn2)cn1` [Example 6, 3-Cyclopropyl-7-(2-hydroxyethyl)-1-(3-(1-methyl-1H-pyrazol-4-yl)isoquinolin-8-yl)-7,8-dihydroimidazo[1,5-a]pyrazin-6(5H)-one], the half-maximal inhibitory concentration (IC50) in assay [1] was 2250 nM; at BRD4(49-170) bromodomain it was 25 µM.

In the case of `Cn1cc(-c2cc3cccc(-c4nc(C5CC5)n5c4CN(CCF)C(=O)C5)c3cn2)cn1` [Example 7, 3-Cyclopropyl-7-(2-fluoroethyl)-1-(3-(1-methyl-1H-pyrazol-4-yl)isoquinolin-8-yl)-7,8-dihydroimidazo[1,5-a]pyrazin-6(5H)-one], the IC50 is 19 nM in assay [1] and 4.97 µM at BRD4(49-170) bromodomain.

As to `CC1C(=O)N(C)Cc2c(-c3cccc4nc(C5=CCOCC5)c(C(F)F)cc34)nc(C3CC3)n21` (stereo not drawn) [Example 9, 3-Cyclopropyl-1-(3-(difluoromethyl)-2-(3,6-dihydro-2H-pyran-4-yl)quinolin-5-yl)-5,7-dimethyl-7,8-dihydroimidazo[1,5-a]pyrazin-6(5H)-one], the IC50 in assay [1] is 3 nM; at BRD4(49-170) bromodomain, 0.366 µM.

On to `CC1C(=O)N(C)Cc2c(-c3cccc4nc(C5CCOCC5)c(C(F)F)cc34)nc(C3CC3)n21` (stereo not drawn) [Example 10, 3-Cyclopropyl-1-(3-(difluoromethyl)-2-(tetrahydro-2H-pyran-4-yl)quinolin-5-yl)-5,7-dimethyl-7,8-dihydroimidazo[1,5-a]pyrazin-6(5H)-one], for which the IC50 in assay [1] came out at 2 nM; on BRD4(49-170) bromodomain, 0.051 µM.

In the case of `Cc1cn(-c2nc3cccc(-c4nc(C5CC5)n5c4CN(C)C(=O)C5C)c3cc2C(F)F)cn1` (stereo not drawn) [Example 11, 3-cyclopropyl-1-(3-(difluoromethyl)-2-(4-methyl-1H-imidazol-1-yl)quinolin-5-yl)-5,7-dimethyl-7,8-dihydroimidazo[1,5-a]pyrazin-6(5H)-one], the concentration for half-maximal inhibition (IC50) turned out to be 4 nM in assay [1] and 0.268 µM at BRD4(49-170) bromodomain.

For the compound `Cc1cn(-c2nc3cccc(-c4nc(C5CC5)n5c4CN(C)C(=O)C5C)c3cc2C(F)F)nn1` (stereo not drawn) [Example 12, 3-cyclopropyl-1-(3-(difluoromethyl)-2-(4-methyl-1H-1,2,3-triazol-1-yl)quinolin-5-yl)-5,7-dimethyl-7,8-dihydroimidazo[1,5-a]pyrazin-6(5H)-one], the IC50 is 3 nM in assay [1] and 0.13 µM at BRD4(49-170) bromodomain.

In the case of `Cc1ncc(-c2cc3cccc(-c4nc(C5CC5)n5c4CN(C)C(=O)C5C)c3cn2)s1` (stereo not drawn) [Example 13, 3-Cyclopropyl-5,7-dimethyl-1-(3-(2-methylthiazol-5-yl)isoquinolin-8-yl)-7,8-dihydroimidazo[1,5-a]pyrazin-6(5H)-one], the IC50 in assay [1] was 2 nM; at BRD4(49-170) bromodomain, 0.187 µM.

On to `Cc1cnn(-c2cc3cccc(-c4nc(C5CC5)n5c4CN(C)C(=O)C5C)c3cn2)c1` (stereo not drawn) [Example 14, 3-Cyclopropyl-5,7-dimethyl-1-(3-(4-methyl-1H-pyrazol-1-yl)isoquinolin-8-yl)-7,8-dihydroimidazo[1,5-a]pyrazin-6(5H)-one], for which the IC50 in assay [1] stood at 3 nM; on BRD4(49-170) bromodomain, 0.44 µM.

For `CC1C(=O)N(C)Cc2c(-c3cccc4cc(-c5nn[nH]n5)ncc34)nc(C3CC3)n21` (stereo not drawn) [Example 17, 1-(3-(2H-Tetrazol-5-yl)isoquinolin-8-yl)-3-cyclopropyl-5,7-dimethyl-7,8-dihydroimidazo[1,5-a]pyrazin-6(5H)-one], the half-inhibitory concentration (IC50) stood at 2 nM in assay [1] and 3.03 µM at BRD4(49-170) bromodomain.

Regarding `CC1C(=O)N(C)Cc2c(-c3cccc4nc(-c5cnn(C)c5)c(C(F)F)cc34)nc(C3CNC3)n21` (stereo not drawn) [Example 18, 3-(Azetidin-3-yl)-1-(3-(difluoromethyl)-2-(1-methyl-1H-pyrazol-4-yl)quinolin-5-yl)-5,7-dimethyl-7,8-dihydroimidazo[1,5-a]pyrazin-6(5H)-one], the IC50 in assay [1] worked out at 50 nM; on BRD4(49-170) bromodomain, 17.5 µM.

With `CC(=O)N1CC(c2nc(-c3cccc4nc(-c5cnn(C)c5)c(C(F)F)cc34)c3n2C(C)C(=O)N(C)C3)C1` (stereo not drawn) [Example 19, 3-(1-Acetylazetidin-3-yl)-1-(3-(difluoromethyl)-2-(1-methyl-1H-pyrazol-4-yl)quinolin-5-yl)-5,7-dimethyl-7,8-dihydroimidazo[1,5-a]pyrazin-6(5H)-one], the half-maximal inhibitory concentration (IC50) is 41 nM in assay [1] and 5.9 µM on BRD4(49-170) bromodomain.

On to `CC1C(=O)N(C)Cc2c(-c3cccc4nc(-c5cnn(C)c5)c(C(F)F)cc34)nc(C3CN(S(C)(=O)=O)C3)n21` (stereo not drawn) [Example 20, 1-(3-(Difluoromethyl)-2-(1-methyl-1H-pyrazol-4-yl)quinolin-5-yl)-5,7-dimethyl-3-(1-(methylsulfonyl)azetidin-3-yl)-7,8-dihydroimidazo[1,5-a]pyrazin-6(5H)-one], for which the values for the half-inhibitory concentration (IC50) (in assay [1]; at BRD4(49-170) bromodomain) were 37 nM and 8.57 µM, respectively.

Turning to `CC1C(=O)N(C)Cc2c(-c3cccc4nc(-c5cnn(C)c5)c(C(F)F)cc34)nc(C3CN(CC(F)(F)F)C3)n21` (stereo not drawn) [Example 21, 1-(3-(Difluoromethyl)-2-(1-methyl-1H-pyrazol-4-yl)quinolin-5-yl)-5,7-dimethyl-3-(1-(2,2,2-trifluoroethyl)azetidin-3-yl)-7,8-dihydroimidazo[1,5-a]pyrazin-6(5H)-one], the results for the 50% inhibitory concentration (IC50) (in assay [1]; at BRD4(49-170) bromodomain) were 13 nM and 6.16 µM, respectively.

Regarding `CC1C(=O)N(C)Cc2c(-c3cccc4nc(-c5cnn(C)c5)c(C(F)F)cc34)nc(C3CN(CC(F)F)C3)n21` (stereo not drawn) [Example 22, 3-(1-(2,2-Difluoroethyl)azetidin-3-yl)-1-(3-(difluoromethyl)-2-(1-methyl-1H-pyrazol-4-yl)quinolin-5-yl)-5,7-dimethyl-7,8-dihydroimidazo[1,5-a]pyrazin-6(5H)-one], the figures for the IC50 (in assay [1]; on BRD4(49-170) bromodomain) were 11 nM and 4.34 µM, respectively.

Take `COCCN1CC(c2nc(-c3cccc4nc(-c5cnn(C)c5)c(C(F)F)cc34)c3n2C(C)C(=O)N(C)C3)C1` (stereo not drawn) [Example 23, 1-(3-(Difluoromethyl)-2-(1-methyl-1H-pyrazol-4-yl)quinolin-5-yl)-3-(1-(2-methoxyethyl)azetidin-3-yl)-5,7-dimethyl-7,8-dihydroimidazo[1,5-a]pyrazin-6(5H)-one]: the half-inhibitory concentration (IC50) in assay [1] turned out to be 94 nM; on BRD4(49-170) bromodomain it was 24.6 µM.
